In US20230365673A1, “MEANS FOR REDUCING RADIO- AND CHEMOTHERAPY RESISTANCE AND ADVERSE EFFECTS” (JOHANN WOLFGANG GOETHE-UNIVERSITÄT FRANKFURT AM MAIN, priority 2020, published 2023):

How the values were obtained:
[1] = system: primary mouse colon fibroblasts; test: Inflammatory gene expression (RT-qPCR/RNAseq) in fibroblasts treated with APTKA conditioned medium; type: cell-based
Procedure: (A) Schematic illustration of APTKA or APTK organoids supernatant collection and treatment of primary mouse colon fibroblasts of unchallenged wildtype C57BL/6 mice. […] (F) Relative expression analysis by RT-qPCR of inflammatory genes in untreated wildtype and APTKA conditioned medium treated fibroblasts in the presence of IKKß inhibitor ML120B (30 μM) and p38 MAPK inhibitor SB203580 (10 μM) for 24 h (n=4 independent wells per group). Data are mean±SD. p<0.05 by one-way ANOVA followed by Tukey's multiple comparisons test. Representative results from one experiment which has been independently repeated 3 times. (G and H) RNA sequencing analysis of APTKA (n=3) and APTK (n=3) organoids: (G) heat map analysis; (H) differentially expressed cytokines in APTKA (Log 2 fold change≤−1) compared to APTK organoids (log 2 fold Change≥1). p-value<0.05. (I) RT-qPCR analysis of inflammatory genes in APTKA conditioned fibroblasts treated with control IgG, α-IL-1α, α-IL-33, α-TNF-α, α-BAFF or α-CXCL16 neutralizing antibodies (2 μg/mL each) for 24 h (n=4 independent wells per group). Data are mean±SD. **** p<0.0001 by one-way ANOVA followed by Tukey's multiple comparisons test. Experiment performed twice. (J) RNA expression profiles of inflammatory genes in APTKA conditioned fibroblasts stimulated for 24 h then subjected to anakinra (10 μg/mL), APTKA fresh or regular medium treatments for another 24 h (n=4 independent wells per condition). Data are mean±SD; p<0.05 by one-way ANOVA followed by Tukey's multiple comparisons test. Representative results from one experiment which has been independently repeated 2 times.
To examine whether APTK and APTKA tumour organoids differentially affect surrounding fibroblasts in tumours directly in a paracrine manner, supernatants were collected from both tumour organoid lines and treated primary intestinal fibroblasts of unchallenged wildtype mice for 24 hours with the two different tumour-conditioned media ex vivo (FIG. 3A). RNAseq analysis confirmed distinct gene expression patterns in fibroblasts exposed to the two organoid supernatants (FIG. 3B).
The inventors then aimed to identify the upstream factors secreted by APTKA organoids that were responsible for activating NF-κB and p38 in fibroblasts. To this end RNAseq analysis of APTK and APTKA tumour organoids were performed and identified several differentially expressed genes encoding cytokines (FIG. 3G, H). Using neutralizing antibodies, NF-κB and p38 inducing cytokines TNFα, IL-1α, IL-33, BAFF or CXCL16 were blocked in APTKA supernatants and expression of Cxcl1, Cxcl2, Cxcl5 and Ilia as inflammatory marker genes in fibroblasts was examined.
To do so, fibroblasts were stimulated for 24 hours with APTKA conditioned medium before adding anakinra, adding fresh APTKA medium or changing medium to regular medium.

[2] = system: APTKA conditioned fibroblasts; test: Fibroblast morphology after fractionated irradiation (3×2 Gy); type: cell-based, mouse
Procedure: (A) Schematic illustration of APTKA organoids supernatant collection and treatment of colon fibroblasts from unchallenged wildtype C57BL/6 mice for 12 h followed by 3×2 Gy irradiation. Microscopic, proteomic & transcriptomic analysis were performed 72 h post first irradiation. (B) Microscopic captures of non-irradiated wildtype (WT) and APTKA conditioned fibroblasts. Remaining captures belong to irradiated fibroblasts: WT, IL-1α (1 μg/mL) stimulated WT, and APTKA conditioned media minus or plus anakinra (20 μg/mL) treated fibroblasts. Scale bars=200 μm. (C) Mass spectrometric analysis of matrisome profiles of 3×2 Gy irradiated (n=8) and non-irradiated (n=8) APTKA conditioned fibroblasts. […] (G) Immunoblot analysis of untreated and irradiated APTKA conditioned fibroblasts. Representative results from one experiment which has been independently repeated 2 times. (H) SA-ß gal staining of untreated and irradiated APTKA fibroblasts. Scale bars=100 μm. (I and J) p21 and pH2AX immunofluorescent staining of untreated and irradiated APTKA fibroblasts. Scale bars=[…]. Data are mean±SD. ** […] and *** p<0.001 by t-test. (K) Nitrite concentration determined by Griess assay in conditioned media from WT, APTK media, APTKA media, IL-1α (1 μg/mL) stimulated and APTKA plus anakinra (20 μg/mL) treated fibroblasts for 72 h (n=10 independent wells per group). […]

| Substance | expression of Cxcl1, Cxcl5 and Mmp13 in already polarized fibroblasts ([1]; 24 h APTKA conditioned medium, then anakinra 10 μg/mL for another 24 h) | upregulation of pro-inflammatory genes in fibroblasts ([1]; APTKA conditioned medium plus anakinra, data not shown) | APTKA-induced elongated, spindle like morphology after irradiation ([2]; wildtype fibroblasts, APTKA conditioned medium plus anakinra 20 μg/mL) | transcriptomic profile induced in fibroblasts ([1]; recombinant IL-1α alone, compared with APTKA supernatant, data not shown) | fibroblast morphology after irradiation ([2]; recombinant IL-1α 1 μg/mL alone) |
| --- | --- | --- | --- | --- | --- |
| anakinra: Kineret®, an interleukin-1 receptor antagonist | completely reverted expression of these genes | prevented upregulation of pro-inflammatory genes | prevented the APTKA-induced phenotype |  |  |
| recombinant IL-1α: recombinant cytokine used to stimulate fibroblasts |  |  |  | sufficed to induce a similar transcriptomic profile as APTKA supernatant | sufficient to cause a comparable morphology after irradiation |
